Assay results as given in US10159249B2 (BAYER CROPSCIENCE AKTIENGESELLSCHAFT, priority 2013, dated 2018).

Experiments:
Euphorbia heterophylla = assay: Field trial, weed efficacy, post applied; assay type: in vivo; settings: Atrazine 1000 g ai/ha; application at 5 leaf stage; assessment 14 days after application
PfHPPDEvo40 = PfHPPDEvo40 (Pseudomonas sp., UniProt P80064, A172V/A339E/A53E/D148E/D45N/E105D/E287Q/E300V/E334P/F143Y/G286D/G335S/H150N/H254A/H63N/I158V/I187A/I249V/K92N/L18F/N24G/N280D/S245T/S257K/S301E/T205S/V65I); assay: Brown color assay, HPPD inhibitor tolerance of E. coli HPPD extracts; settings: extract titrated on 250 uM inhibitor; brown pigment formation
Amaranthus retroflexus = settings: Glufosinate-ammonium 500 g ai/ha; application at 6 leaf stage; assessment 14 days after application
[1] = system: Ipomoea aristolochiaefolia; settings: Glyphosate 960 g ai/ha; application at 6 leaf stage; assessment 14 days after application
Digitaria horizontalis = assay: Field trial, weed efficacy, post applied; assay type: in vivo; settings: application at 2 tillers, assessment 14 days after application

PfHPPDEvo40, sequence (P80064 other isoform, or with tags, fused parts or gaps with the stated changes): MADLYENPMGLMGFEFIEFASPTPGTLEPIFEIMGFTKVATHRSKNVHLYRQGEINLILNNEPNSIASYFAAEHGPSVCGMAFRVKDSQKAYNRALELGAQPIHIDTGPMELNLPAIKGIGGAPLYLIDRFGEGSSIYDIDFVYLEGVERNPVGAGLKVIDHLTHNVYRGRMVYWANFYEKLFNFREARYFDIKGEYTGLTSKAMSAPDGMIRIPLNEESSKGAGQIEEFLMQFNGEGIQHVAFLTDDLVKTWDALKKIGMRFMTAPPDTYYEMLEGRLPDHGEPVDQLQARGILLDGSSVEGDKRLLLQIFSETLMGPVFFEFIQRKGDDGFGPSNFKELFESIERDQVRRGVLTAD

## CCNc1nc(Cl)nc(NC(C)C)n1 [Atrazine, reference compound]
Euphorbia heterophylla
  Efficacy (%) Euphorbia heterophylla: 74%

## CS(=O)(=O)c1cc(C(F)(F)F)ccc1C(=O)C(C#N)C(=O)C1CC1 (stereo not shown) [DKN, diketonitrile]
PfHPPDEvo40
  tolerance of variant PfHPPDEvo40 to the inhibitor compared to PfHPPD336W: improved tolerance

## CP(=O)(O)CCC(N)C(=O)O (stereo not shown) [Glufosinate-ammonium, reference compound]
Amaranthus retroflexus
  Efficacy (%) Amaranthus retroflexus: 33%

## O=C(O)CNCP(=O)(O)O [Glyphosate, reference compound]
[1]
  Efficacy (%) Ipomoea aristolochiaefolia: 70%

## CSc1nnc(C(C)(C)C)c(=O)n1N [Metribuzin]
Digitaria horizontalis; Metribuzin 240 g ai/ha
  Efficacy (%) Digitaria horizontalis: 15%
Digitaria horizontalis; Metribuzin 480 g ai/ha
  Efficacy (%) Digitaria horizontalis: 35%

## CS(=O)(=O)c1ccc(C(=O)C2C(=O)CCCC2=O)c(Cl)c1COCC(F)(F)F [TBT, tembotrione]
PfHPPDEvo40
  tolerance of variant PfHPPDEvo40 to the inhibitor compared to PfHPPD336W: improved tolerance
